Where a SMILES comes first, the peptide text is derived from it. [ ]: non-standard residue; d: D form.

Test [1] has as its target Delta-type opioid receptor (Homo sapiens, UniProt P41143). In words: Binding affinity towards Opioid receptor delta 1 using [3H]DPDPE as radioligand. Also noted: species or system Cricetulus griseus.
Another test deals with Mu-type opioid receptor (Homo sapiens, UniProt P35372). Nature of the test: Binding affinity towards Opioid receptor mu 1 using [3H]DAMGO as radioligand.
Sequence of Mu-type opioid receptor (P35372 whole entry): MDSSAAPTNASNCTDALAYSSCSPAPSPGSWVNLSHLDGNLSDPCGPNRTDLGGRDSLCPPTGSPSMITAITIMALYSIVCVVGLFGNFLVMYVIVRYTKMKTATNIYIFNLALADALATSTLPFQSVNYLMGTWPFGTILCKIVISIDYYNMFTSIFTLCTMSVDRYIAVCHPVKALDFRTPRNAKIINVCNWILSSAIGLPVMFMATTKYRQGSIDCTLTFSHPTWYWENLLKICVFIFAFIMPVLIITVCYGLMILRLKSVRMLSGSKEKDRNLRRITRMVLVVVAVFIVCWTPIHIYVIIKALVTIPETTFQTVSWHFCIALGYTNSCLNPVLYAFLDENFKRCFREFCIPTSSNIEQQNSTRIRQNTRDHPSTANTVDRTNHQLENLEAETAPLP
Test [2] concerns the target Kappa-type opioid receptor (Homo sapiens, UniProt P41145). In words: Binding affinity towards Opioid receptor kappa 1 using [3H]diprenorphine as radioligand expressed on chinese hamster ovary (CHO) cells. The test is classed as cell-based.

Sequence of Delta-type opioid receptor (P41143 whole entry): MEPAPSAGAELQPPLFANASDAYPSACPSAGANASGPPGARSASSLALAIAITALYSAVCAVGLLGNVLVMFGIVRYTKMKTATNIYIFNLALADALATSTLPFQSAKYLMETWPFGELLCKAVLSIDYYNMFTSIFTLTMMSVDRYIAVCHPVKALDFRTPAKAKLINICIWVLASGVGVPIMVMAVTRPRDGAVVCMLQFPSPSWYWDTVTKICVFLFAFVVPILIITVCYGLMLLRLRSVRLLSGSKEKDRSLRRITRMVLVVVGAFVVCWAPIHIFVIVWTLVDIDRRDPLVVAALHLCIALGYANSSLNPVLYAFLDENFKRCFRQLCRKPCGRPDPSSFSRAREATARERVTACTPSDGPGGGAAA
Sequence of Kappa-type opioid receptor (P41145 whole entry): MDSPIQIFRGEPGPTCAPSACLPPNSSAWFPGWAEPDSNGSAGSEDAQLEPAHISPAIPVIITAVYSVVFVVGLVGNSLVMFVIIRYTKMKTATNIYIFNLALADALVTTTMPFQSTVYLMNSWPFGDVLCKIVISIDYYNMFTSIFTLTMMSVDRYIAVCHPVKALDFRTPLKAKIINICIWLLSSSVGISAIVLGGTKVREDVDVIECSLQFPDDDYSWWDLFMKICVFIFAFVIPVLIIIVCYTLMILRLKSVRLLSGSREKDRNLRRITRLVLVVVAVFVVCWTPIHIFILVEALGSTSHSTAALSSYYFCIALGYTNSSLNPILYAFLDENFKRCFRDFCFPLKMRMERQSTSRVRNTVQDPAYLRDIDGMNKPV

In turn, `CC(=O)N[C@@H](Cc1ccccc1)C(=O)N[C@@H](Cc1ccccc1)C(=O)N[C@@H](Cc1ccccc1)C(=O)N[C@@H](CCCNC(=N)N)C(=O)N[C@@H](CC(C)C)C(=O)N[C@@H](CCCNC(=N)N)C(=O)N[C@@H](CCCNC(=N)N)C(=O)N[C@H](C)C(=O)N[C@@H](CCCNC(=N)N)C(=O)N1CCC[C@H]1C(=O)N[C@@H](CCCCN)C(N)=O` (Ac-FFFRLRR[dA]RPK-NH2) gave a Ki in test [1] of 5830 nM.

For the compound `CSCC[C@H](NC(=O)[C@H](Cc1ccccc1)NC(=O)[C@H](CCCN=C(N)N)NC(C)=O)C(=O)N[C@@H](Cc1c[nH]c2ccccc12)C(=O)N[C@@H](CCSC)C(=O)N[C@@H](CCCN=C(N)N)C(=O)N[C@@H](CCCN=C(N)N)C(=O)N[C@H](C)C(=O)N[C@@H](CCCN=C(N)N)C(=O)N1CCC[C@H]1C(=O)N[C@@H](CCCCN)C(N)=O` [EXTACET], the values for the Ki (on Mu-type opioid receptor; in test [2]) were 1.12 nM and 6.6 nM, respectively.

As a reminder, the Ki is a measure of affinity in units of concentration, obtained from inhibition or displacement.

For the origin of these results see ChEMBL document CHEMBL1135684, “Identification of arodyn, a novel acetylated dynorphin A-(1-11) analogue, as a kappa opioid receptor antagonist” (J Med Chem, 2002).
